As a reminder, the Kd is the constant that tells how readily two partners part at equilibrium.

Here are results for one compound from US11884647B2, “Compounds and methods for targeting pathogenic blood vessels” (THE REGENTS OF THE UNIVERSITY OF CALIFORNIA, priority 2019, dated 2024).

Experiment [1] deals with tumor endothelial cells (LL/2 lung cancer tumor). The experiment in a line: Lung LL2 ex vivo model of tumor angiogenesis. The format is cell-based, mouse. To be noted: Mus musculus, Endothelial cell, 48 h, read-out: Cell death. The gist of the method:
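Read-out is live/dead fluorescence imaging (fluorescein diacetate green, propidium iodide red, 10 min at 37° C) at 2×, taken e.g. 48 h after drug addition. Fragments of mouse LL2 tumor are cultured in Matrigel with endothelial growth medium, usually 4 days, until new endothelial cells grow out, then treated.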

Experiment [2] addresses T1, extracellular domain of PLXDC1 (PLXDC1-ECD) (Homo sapiens, UniProt Q8IUK5).
T1 construct: the extracellular domain of PLXDC1 (PLXDC1-ECD)
T1 sequence (Q8IUK5 19-426 limits assumed): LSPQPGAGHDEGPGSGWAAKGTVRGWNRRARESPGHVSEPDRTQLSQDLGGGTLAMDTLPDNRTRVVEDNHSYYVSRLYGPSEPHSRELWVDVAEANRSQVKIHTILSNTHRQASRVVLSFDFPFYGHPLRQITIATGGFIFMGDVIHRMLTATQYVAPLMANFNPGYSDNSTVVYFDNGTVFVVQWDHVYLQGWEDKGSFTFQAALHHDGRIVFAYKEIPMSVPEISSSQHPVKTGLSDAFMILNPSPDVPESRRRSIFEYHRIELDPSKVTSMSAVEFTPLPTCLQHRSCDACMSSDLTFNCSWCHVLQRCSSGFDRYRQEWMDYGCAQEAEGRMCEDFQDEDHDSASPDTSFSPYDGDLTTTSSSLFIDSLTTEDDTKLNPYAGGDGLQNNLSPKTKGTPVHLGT
Description: Binding to PLXDC1 extracellular domain by suppression of tryptophan fluorescence. How it is done: The high affinity interaction between compound 346 (Table 3) and the extracellular domain of PLXDC1 (PLXDC1-ECD). […] Tryptophan fluorescence without the compound added is defined as 1. The estimated Kd value is 50 nM.

A further experiment concerns PLXDC1. The experiment in a line: PLXDC1 receptor activation assay (Gfi1b promotor luciferase reporter). The format is cell-based. Particulars: treatment 1 day; basal activity of PLXDC1-expressing cells = 1. An excerpt: (§1) FIG. 5A-B show activation of PLXDC1 and PLXDC2 by small molecules. […] All compound treatments were done for 1 day. Basal promotor activity of the PLXDC1-expressing cells is defined as 1.
(Reporter assays use an easily measured gene product as a stand-in for the process of interest.)

The test system of a further experiment is PLXDC2. Description: PLXDC2 receptor activation (Gfi1b promotor luciferase reporter). Type of experiment: cell-based. Particulars: treatment 1 day.
From the text: as §1

The test system of experiment [3] is pathogenic blood vessels of the retina. The experiment in a line: Ischemia-induced retinopathy in vivo. Also on record: species or system mouse. To be noted: subcutaneous injection during return to room air; n=10 retinas. An excerpt:
A. Upper graph: Schematic diagram of the experimental design for ischemia-induced retinopathy. The high oxygen environment caused blood vessel loss (vaso-obliteration). In room air, loss of vessels triggered abnormal angiogenesis that generated pathogenic blood vessels on the top of the retina (marked in yellow in D). Treatment was applied during the return to room air by subcutaneous injection. […] Red signal is blood vessel marker. C. The same retinas in B with vaso-obliteration areas marked in white color. […] D. The same retinas in B with pathogenic blood vessels marked in yellow color. […] FIG. 7A includes a schematic diagram of the experimental design for ischemia-induced retinopathy. The high oxygen environment caused blood vessel loss (vaso-obliteration). In room air, loss of vessels triggered abnormal angiogenesis that generated pathogenic blood vessels on the top of the retina (marked in yellow in FIG. 7D). Treatment was applied during the return to room air by subcutaneous injection. […] The same retinas in B with vaso-obliteration areas marked in white color (FIG. 7C). […] The same retinas in B with pathogenic blood vessels marked in yellow color (FIG. 7D).

Experiment [4] has as its system tumor / tumor blood vessels. The experiment in a line: Tumor animal model, bolus IV injection at day 0, tumor growth and morphology. Type of experiment: in vivo, mouse. To be noted: versus control group.
From the text: Treatment was done at day 0 by bolus IV injection. […] Treatment was done at day 0. […] Treatment was done at day 0.

Entries after “also recorded” stand apart in the source; their conditions may differ.

As to `CCCCCCCCCCCCCCOc1ccc(S(=O)(=O)c2cnc3ccc([S+](C)[O-])cc3c2N2CCC(N3CCC(N4CCN(C)CC4)CC3)CC2)cc1` (centres unmarked) [compound 346, 4-(4-(4-methylpiperazin-1-yl)-[1,4′-bipiperidin]-1′-yl)-6-(methylsulfinyl)-3-((4-(tetradecyloxy)phenyl)sulfonyl)quinoline], the cytotoxicity at 20 µM in experiment [1] amounted to 20%. For the same compound, the “suppression of endogenous tryptophan fluorescence of PLXDC1-ECD” value in experiment [2] (different concentrations, fluorescence without compound = 1) was “suppressed the endogenous tryptophan fluorescence of PLXDC1-ECD in a dose-dependent manner”. In addition, the Kd in experiment [2] (estimated from dose-dependent suppression of PLXDC1-ECD tryptophan fluorescence) was 50 nM. Further, the “Gfi1b promotor activity in PLXDC1-expressing cells” value in the experiment with PLXDC1 is “highly activated the promotor activity in PLXDC1-expressing cells”. In addition, the “Gfi1b promotor activity in PLXDC2-expressing cells” value in the experiment with PLXDC2 is given as “activated the promotor activity in PLXDC2-expressing cells”. In experiment [3], the “healthy blood vessels in ischemia-induced retinopathy” value is “improving the amount of healthy blood vessels” and the “pathogenic blood vessels in ischemia-induced retinopathy” value was “specifically suppressed pathogenic blood vessels in vivo without affecting healthy blood vessels; also recorded: highly suppressed pathogenic blood vessels”. For the same compound, the “tumor growth (shrinkage)” value in experiment [4] is listed as “shrank the tumors significantly”.
